How the values were obtained:
[1] = Forced swim test in C57BL/6J mice; format: in vivo, mouse; conditions: 5 mg/kg oral for 21 days, male C57BL/6J mice, immobility in last 4 min of 6 min
Protocol: (§1) Male C57BL/6J mice (8 mice/group) were orally administrated by gavage with 5 mg/kg 4′-DMA-7,8-DHF and 7,8-DHF and vehicle solvent saline for 21 days and subjected to a forced swim test (6 min, immobility recorded in the last 4 min). Data are presented as mean±SEM.
as §1, with “Forced swim test with imidazole flavonoid and compound i. Male” for “Male”, “days,” for “days”
Adult male mice (2-3 months old) were randomly submitted to a forced swim test without a pre-swim. Saline, 4′-DMA-7,8-DHF and 7,8-DHF (5 mg/kg) were orally injected for 21 days. The mice were allowed to adapt to the test room for 2 days. The mice were placed in a clear glass cylinder with a diameter of 16 cm, half-filled with clear water at 24° C.
(§2) Accumulating evidence supports that BDNF plays a role in mediating therapeutic effects of antidepressants. Infusion of exogenous BDNF into hippocampus or brain stem has anti-depressant-like behavioral effect. A forced swim test is broadly used for screening of potential antidepressant drugs and is widely used to measure antidepressant activity. To explore whether 4′-DMA-7,8-DHF and 7,8-DHF have any antidepressant effect like BDNF, a forced swim test was conducted after chronic treatment of the mice for 21 days via oral injection.
(§3) BDNF/TrkB signaling plays an role in mediating antidepressants' therapeutic effects. A forced swim test is broadly used for screening of potential antidepressant drugs and is widely used to measure antidepressant activity. To explore whether imidazole flavanoid and compound i have any antidepressant effect like BDNF, a forced swim test was conducted after chronic treatment of the mice for 21 days via oral administration.

TrkB = molecular target: T1, TrkB (Mus musculus, UniProt P15209); experiment: TrkB activation in brain of chronically treated mice (immunoblotting p-TrkB 817, immunohistochemistry p-TrkB Y816); format: in vivo; conditions: for TrkB activation in mouse brain after chronic treatment: 5 mg/kg oral 21 days, brain lysates, immunoblotting p-TrkB 817; for TrkB activation in the dentate gyrus: 5 mg/kg oral, after 21 days treatment, immunohistochemistry
T1 construct: from tissue; host or cells: brain of wild-type C57BL/6J mice
Protocol: Paraffin section were deparaffinized in xylene and rehydrated gradient ethanol solution. Samples were boiled in 10 mM sodium citrate buffer for 20 min for antigen retrieval purpose. Brain sections were incubated with anti-TrkB (BD biosciences, San Jose, Calif.) 1:50, and anti-p-TrkB Y816 was used at 1:300 dilution. Secondary antibody were applied using antirabbit-Alexa 594 (red), antimouse-FITC (green). DAPI (blue) was used for nuclear staining.
(§4) The brain lysates from above chronically treated mice were analyzed by immunoblotting with anti-p-TrkA 794 and p-TrkB 817.
Brain tissues were fixed in 4% paraformaldehyde overnight followed by paraffin embedding. Sections of […] were cut. For immunohistochemical staining, brain sections were deparaffinized in xylene and rehydrated in graded alcohols. Endogenous peroxidase activity was blocked by 3% hydrogen peroxide for 5 minutes and all slides were boiled in 10 mM sodium citrate buffer (pH 6.0) for 10 minutes. Phosphorylated Trk B816 and Trk B were detected using specific antibodies. Paraffin section were deparaffinized in xylene and rehydrated gradient ethanol solution. Samples were boiled in 10 mM sodium citrate buffer for 20 min for antigen retrieval purpose. Brain sections were incubated with anti-TrkB (BD biosciences, San Jose, Calif.) 1:50, p-TrkB 1:300 dilution. Secondary antibodies were applied using anti-rabbit-Alexa 594 (red), anti-mouse-FITC (green). DAPI (blue) was used for nuclear staining
Administration of chronic, but not acute, monoamine antidepressant drugs enhances adult neurogenesis in dentate gyrus of rodents and non-human primates, while blocking neurogenesis by irradiation attenuates the behavioral antidepressant-like effects of these drugs in some rodent strains. […] Ablation of TrkB specifically in hippocampal neural progenitor cells prevents chronic antidepressant-induced neurogenesis and renders the mice behaviorally non-responsive to chronic antidepressant treatment. To test whether increasing TrkB activation by these small agonists would elevate the neurogenesis, adult male C57BL/6J mice were orally injected with either vehicle, 7,8-DHF, or 4′-DMA-7,8-DHF (5 mg/kg) for 21 days. At the end of treatment (day 21), animals were injected with BrdU (50 mg/kg, intraperitoneally) to label dividing cells and were sacrificed 2 h later. BrdU immunohistochemistry was used to assess progenitor proliferation (FIG. 4A). […] Therefore, chronic treatment with TrkB agonists promotes neurogenesis in the hippocampus of mice.
as §2, §3

TrkA = molecular target: T2, TrkA (Mus musculus, UniProt Q3UFB7); experiment: TrkA activation in brain of chronically treated mice (immunoblotting p-TrkA 794); format: in vivo; conditions: 5 mg/kg oral 21 days, brain lysates
T2 construct: from tissue; host or cells: brain of chronically treated C57BL/6J mice
Protocol: as §4, §2, §3

T1 sequence (P15209 32-821): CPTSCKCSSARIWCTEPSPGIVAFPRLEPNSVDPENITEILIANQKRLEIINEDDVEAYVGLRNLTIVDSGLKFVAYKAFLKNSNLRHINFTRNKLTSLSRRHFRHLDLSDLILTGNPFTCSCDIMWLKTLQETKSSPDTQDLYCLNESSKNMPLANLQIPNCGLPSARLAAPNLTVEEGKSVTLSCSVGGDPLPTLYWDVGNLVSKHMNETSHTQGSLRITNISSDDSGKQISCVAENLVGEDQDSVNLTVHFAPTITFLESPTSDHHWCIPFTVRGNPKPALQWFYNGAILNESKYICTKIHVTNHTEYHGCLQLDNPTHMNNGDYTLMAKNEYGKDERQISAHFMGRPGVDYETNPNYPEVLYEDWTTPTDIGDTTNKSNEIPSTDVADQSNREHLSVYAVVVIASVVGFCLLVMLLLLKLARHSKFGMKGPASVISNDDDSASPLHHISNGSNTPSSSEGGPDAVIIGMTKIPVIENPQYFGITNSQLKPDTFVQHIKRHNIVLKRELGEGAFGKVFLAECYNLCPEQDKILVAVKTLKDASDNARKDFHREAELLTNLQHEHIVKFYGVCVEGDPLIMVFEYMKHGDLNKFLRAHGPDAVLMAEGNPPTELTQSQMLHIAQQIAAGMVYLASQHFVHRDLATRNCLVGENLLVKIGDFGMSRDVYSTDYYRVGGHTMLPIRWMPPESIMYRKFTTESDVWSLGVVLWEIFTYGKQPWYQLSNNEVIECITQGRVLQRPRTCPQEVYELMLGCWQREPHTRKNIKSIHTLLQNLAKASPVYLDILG
T2 sequence (Q3UFB7 34-799): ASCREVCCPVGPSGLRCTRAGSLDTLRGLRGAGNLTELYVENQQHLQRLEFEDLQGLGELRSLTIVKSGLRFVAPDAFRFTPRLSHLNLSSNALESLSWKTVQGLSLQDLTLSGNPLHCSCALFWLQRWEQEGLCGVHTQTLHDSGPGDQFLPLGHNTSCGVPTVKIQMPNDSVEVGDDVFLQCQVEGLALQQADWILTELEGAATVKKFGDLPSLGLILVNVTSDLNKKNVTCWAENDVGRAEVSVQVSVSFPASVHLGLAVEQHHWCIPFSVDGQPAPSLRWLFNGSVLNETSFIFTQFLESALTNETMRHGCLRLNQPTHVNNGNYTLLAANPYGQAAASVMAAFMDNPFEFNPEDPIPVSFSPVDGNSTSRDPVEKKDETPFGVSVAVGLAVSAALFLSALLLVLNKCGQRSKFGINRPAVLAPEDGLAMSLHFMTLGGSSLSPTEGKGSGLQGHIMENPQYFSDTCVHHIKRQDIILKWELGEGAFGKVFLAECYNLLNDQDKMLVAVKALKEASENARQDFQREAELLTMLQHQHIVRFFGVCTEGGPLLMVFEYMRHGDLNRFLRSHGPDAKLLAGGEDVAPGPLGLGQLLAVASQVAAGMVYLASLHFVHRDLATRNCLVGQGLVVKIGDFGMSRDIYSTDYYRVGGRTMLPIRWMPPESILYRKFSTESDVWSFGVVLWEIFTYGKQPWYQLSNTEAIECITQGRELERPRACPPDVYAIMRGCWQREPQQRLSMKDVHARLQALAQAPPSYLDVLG

Compound: CN(C)c1ccc(-c2cc(=O)c3ccc(O)c(O)c3o2)cc1 [4′-DMA-7,8-DHF, 4′-dimethylamino-7,8-dihydroxyflavone]
- swimming immobility in forced swim test [1]: evidently reduced the immobility
- TrkB activation in mouse brain after chronic treatment (TrkB): evidently provoked TrkB
- TrkB activation in the dentate gyrus (TrkB): markedly activated
- TrkA activation in mouse brain after chronic treatment (TrkA): not TrkA activation

Compound: O=c1cc(-c2ccccc2)oc2c(O)c(O)ccc12 [7,8-DHF, 7,8-dihydroxyflavone, reference compound]
- swimming immobility in forced swim test [1]: significantly decreased
- TrkB activation in mouse brain after chronic treatment (TrkB): evidently provoked TrkB
- TrkB activation in the dentate gyrus (TrkB): markedly activated
- TrkA activation in mouse brain after chronic treatment (TrkA): not TrkA activation

Compound: CN(C)c1ccc(-c2cc(=O)c3ccc4nc[nH]c4c3o2)cc1 [compound m, 8-(4-(dimethylamino)phenyl)chromeno[7,8-d]imidazol-6(1H)-one]
- swimming immobility in forced swim test ([1]; listed as imidazole flavanoid): significantly decreased
- swimming immobility in forced swim test ([1]; listed as imidazole-derivative): more robust antidepressant effect than compound i
- TrkB activation in mouse brain after chronic treatment (TrkB; listed as imidazole flavanoid): evidently provoked TrkB
- TrkB activation in mouse brain after chronic treatment (TrkB; listed as imidazole-derivative): stronger activity than compound i
- TrkA activation in mouse brain after chronic treatment (TrkA): not TrkA activation

Reference: patent publication US9504674B2, “TrkB agonists and methods of use” (EMORY UNIVERSITY, priority 2010, dated 2016)
